Experimental data taken from ChEMBL document CHEMBL1201862, “PubChem BioAssay data set” (2004).
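Compound exposure: 48 hours, 5 concentrations, 96-well plates. GI50: concentration for 50% inhibition of growth.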 The source made the active and inactive calls. Rule as the data show it: active = GI50 up to about 1.1 µM and inactive = higher.

Columns and labels:
Experiment in all cases: growth of human tumour cells (NCI), 48 h
A498 = tested on: A498
TK-10 = tested on: TK-10
ACHN = tested on: ACHN
IGROV-1 = tested on: IGROV-1
Hs-578T = tested on: Hs-578T
SK-MEL-2 = tested on: SK-MEL-2
K562 = tested on: K562
MCF7 = tested on: MCF7
UACC-62 = tested on: UACC-62
786-0 = tested on: 786-0
UACC-257 = tested on: UACC-257
COLO 205 = tested on: COLO 205
NCI-H522 = tested on: NCI-H522
HCC 2998 = tested on: HCC 2998
CAKI-1 = tested on: CAKI-1
DU-145 = tested on: DU-145
SNB-19 = tested on: SNB-19
SW-620 = tested on: SW-620
BT-549 = tested on: BT-549

Measured: GI50

COC(=O)c1c2c(cc3c1CC1(C3)Cc3cc4c(c(C(=O)OC)c3C1)CCCC4)CCCC2
inactive: A498 > 100 µM | TK-10 > 100 µM | ACHN > 100 µM | IGROV-1 > 100 µM | Hs-578T > 100 µM | SK-MEL-2 1.55 µM | K562 43 µM | MCF7 > 100 µM | UACC-62 > 100 µM | 786-0 > 100 µM | UACC-257 > 100 µM | COLO 205 > 100 µM | NCI-H522 > 100 µM | HCC 2998 > 100 µM

CCOC(=O)C1=C(OS(=O)(=O)C(F)(F)F)CCCC1
inactive: CAKI-1 > 100 µM | A498 > 100 µM | TK-10 > 100 µM | ACHN > 100 µM | IGROV-1 > 100 µM | Hs-578T > 100 µM | DU-145 > 100 µM | SK-MEL-2 > 100 µM | K562 > 100 µM | SNB-19 > 100 µM | MCF7 > 100 µM | UACC-62 > 100 µM | 786-0 > 100 µM | UACC-257 > 100 µM | COLO 205 > 100 µM | NCI-H522 > 100 µM | SW-620 > 100 µM | HCC 2998 > 100 µM

c1cc2c(cc1NC1=NCCO1)OCO2
inactive: CAKI-1 > 100 µM | A498 > 100 µM | TK-10 > 100 µM | ACHN > 100 µM | IGROV-1 > 100 µM | Hs-578T > 100 µM | DU-145 > 100 µM | SK-MEL-2 > 100 µM | K562 11.9 µM | SNB-19 > 100 µM | MCF7 > 100 µM | UACC-62 > 100 µM | 786-0 > 100 µM | COLO 205 > 100 µM | NCI-H522 > 100 µM | SW-620 > 100 µM | HCC 2998 > 100 µM

CC1(C)OC2COC3([C@@H]4OC(C)(C)O[C@@H]4CO)OC(C)(C)OC3C2O1 (stereo partly drawn)
inactive: CAKI-1 > 100 µM | A498 > 100 µM | ACHN > 100 µM | IGROV-1 > 100 µM | DU-145 > 100 µM | SK-MEL-2 > 100 µM | K562 > 100 µM | SNB-19 > 100 µM | MCF7 > 100 µM | UACC-62 > 100 µM | 786-0 > 100 µM | UACC-257 > 100 µM | COLO 205 > 100 µM | BT-549 > 100 µM | SW-620 > 100 µM | HCC 2998 > 100 µM

O[C@@]1(C#Cc2ccc3c(c2)OCO3)CCC[C@H]1NCc1ccccc1
inactive: CAKI-1 28.4 µM | A498 28.6 µM | TK-10 27.7 µM | ACHN 37.2 µM | IGROV-1 14.1 µM | Hs-578T 21.2 µM | DU-145 47.2 µM | SK-MEL-2 16.2 µM | K562 18.7 µM | SNB-19 22.5 µM | MCF7 22.5 µM | UACC-62 16.9 µM | 786-0 17.5 µM | UACC-257 24.2 µM | COLO 205 18.3 µM | NCI-H522 15.3 µM | SW-620 31.4 µM | HCC 2998 17.1 µM

c1ccc2c(c1)SCCCS2
inactive: TK-10 > 100 µM | IGROV-1 > 100 µM | DU-145 > 100 µM | K562 > 100 µM | SNB-19 > 100 µM | MCF7 > 100 µM | UACC-62 > 100 µM | 786-0 > 100 µM | UACC-257 > 100 µM | COLO 205 > 100 µM | NCI-H522 > 100 µM | BT-549 > 100 µM | SW-620 > 100 µM | HCC 2998 > 100 µM

Cc1cn(C(C)OCCN2C(=O)c3ccccc3C2=O)c(=O)[nH]c1=O (stereo not drawn)
inactive: CAKI-1 > 100 µM | A498 > 100 µM | ACHN > 100 µM | IGROV-1 > 100 µM | DU-145 > 100 µM | SK-MEL-2 > 100 µM | K562 > 100 µM | SNB-19 > 100 µM | MCF7 > 100 µM | UACC-62 > 100 µM | 786-0 > 100 µM | UACC-257 > 100 µM | COLO 205 > 100 µM | BT-549 > 100 µM | SW-620 > 100 µM | HCC 2998 > 100 µM

Cc1nc2c(cc1C(=O)NN)c(=O)n(C)c(=O)n2C
inactive: CAKI-1 > 100 µM | TK-10 > 100 µM | ACHN > 100 µM | IGROV-1 > 100 µM | DU-145 > 100 µM | SK-MEL-2 > 100 µM | K562 > 100 µM | SNB-19 > 100 µM | MCF7 > 100 µM | UACC-62 > 100 µM | 786-0 > 100 µM | UACC-257 > 100 µM | COLO 205 > 100 µM | BT-549 > 100 µM | SW-620 > 100 µM | HCC 2998 > 100 µM

Cc1ccc(SCC(CF)OCn2cc(F)c(=O)[nH]c2=O)cc1 (stereo not drawn)
inactive: CAKI-1 > 100 µM | A498 > 100 µM | TK-10 > 100 µM | ACHN > 100 µM | IGROV-1 > 100 µM | Hs-578T > 100 µM | DU-145 > 100 µM | SK-MEL-2 > 100 µM | K562 > 100 µM | SNB-19 > 100 µM | MCF7 > 100 µM | 786-0 > 100 µM | UACC-257 > 100 µM | NCI-H522 > 100 µM | SW-620 > 100 µM | HCC 2998 > 100 µM

O/N=C1/CCC/C1=C\c1ccccc1
inactive: CAKI-1 > 100 µM | TK-10 > 100 µM | ACHN > 100 µM | IGROV-1 > 100 µM | SK-MEL-2 > 100 µM | K562 74.1 µM | SNB-19 > 100 µM | UACC-62 > 100 µM | 786-0 > 100 µM | UACC-257 > 100 µM | COLO 205 > 100 µM | NCI-H522 31 µM | SW-620 > 100 µM | HCC 2998 > 100 µM

NC(Cc1c2ccccc2cc2ccccc12)C(=O)O (stereo not drawn)
inactive: CAKI-1 62.2 µM | TK-10 > 100 µM | ACHN 83 µM | IGROV-1 48.3 µM | DU-145 85.1 µM | SK-MEL-2 > 100 µM | K562 > 100 µM | SNB-19 > 100 µM | MCF7 > 100 µM | UACC-62 76.9 µM | 786-0 > 100 µM | UACC-257 > 100 µM | COLO 205 38.4 µM | NCI-H522 > 100 µM | SW-620 70.5 µM | HCC 2998 > 100 µM

O=[N+]([O-])c1ccccc1/C=N/C12CC3CC(CC(C3)C1)C2
inactive: CAKI-1 49.5 µM | A498 > 100 µM | TK-10 > 100 µM | ACHN > 100 µM | IGROV-1 > 100 µM | SK-MEL-2 65.8 µM | K562 29.8 µM | SNB-19 49.9 µM | UACC-62 > 100 µM | 786-0 52.4 µM | UACC-257 > 100 µM | COLO 205 > 100 µM | NCI-H522 > 100 µM | SW-620 46.6 µM | HCC 2998 38.1 µM

N/N=C1/C(=N/O)CCc2nonc21
inactive: CAKI-1 > 100 µM | TK-10 > 100 µM | ACHN > 100 µM | IGROV-1 > 100 µM | Hs-578T > 100 µM | DU-145 > 100 µM | SK-MEL-2 > 100 µM | K562 > 100 µM | SNB-19 84.1 µM | MCF7 > 100 µM | UACC-62 > 100 µM | 786-0 > 100 µM | UACC-257 > 100 µM | COLO 205 > 100 µM | SW-620 > 100 µM | HCC 2998 > 100 µM

COc1ccc(NCn2nc(CCCCCCCCc3nn(CNc4ccc(OC)cc4)c(=S)o3)oc2=S)cc1
inactive: CAKI-1 > 100 µM | A498 > 100 µM | TK-10 > 100 µM | ACHN > 100 µM | DU-145 > 100 µM | SK-MEL-2 > 100 µM | K562 > 100 µM | SNB-19 > 100 µM | MCF7 > 100 µM | UACC-62 > 100 µM | 786-0 > 100 µM | UACC-257 > 100 µM | COLO 205 > 100 µM | NCI-H522 > 100 µM | BT-549 > 100 µM | SW-620 > 100 µM | HCC 2998 > 100 µM

O=[N+]([O-])/C(Cl)=C(\Nc1ccccc1)C(Cl)=C(Cl)Cl
inactive: CAKI-1 48.3 µM | A498 30.8 µM | TK-10 56.6 µM | ACHN 29.2 µM | IGROV-1 32.4 µM | Hs-578T 34.3 µM | DU-145 36.8 µM | SK-MEL-2 28.8 µM | K562 25 µM | SNB-19 33.5 µM | MCF7 14.3 µM | UACC-62 26.2 µM | 786-0 27.5 µM | UACC-257 49.8 µM | COLO 205 19.5 µM | NCI-H522 42.7 µM | HCC 2998 37.5 µM

Oc1c(OCc2nnc(CCCCCCCCc3nnc(COc4ccc5ccccc5c4O)o3)o2)ccc2ccccc12
inactive: CAKI-1 29.8 µM | A498 > 100 µM | TK-10 > 100 µM | ACHN > 100 µM | DU-145 > 100 µM | SK-MEL-2 > 100 µM | K562 91.6 µM | SNB-19 39.9 µM | MCF7 > 100 µM | UACC-62 > 100 µM | 786-0 16.6 µM | UACC-257 > 100 µM | COLO 205 > 100 µM | NCI-H522 > 100 µM | BT-549 > 100 µM | SW-620 > 100 µM | HCC 2998 > 100 µM

CC(=O)OC(COc1ccc2c(c1)[n+]([O-])nc(N)[n+]2[O-])CN1CCCCC1 (stereo not drawn)
inactive: CAKI-1 17.4 µM | A498 4.36 µM | TK-10 23.5 µM | ACHN 6.79 µM | DU-145 18.3 µM | SK-MEL-2 10.2 µM | K562 7.69 µM | SNB-19 22.3 µM | MCF7 4.71 µM | 786-0 9.98 µM | UACC-257 12.5 µM | COLO 205 4.85 µM | NCI-H522 11.1 µM | BT-549 24.5 µM | SW-620 17.1 µM | HCC 2998 8.71 µM
